The target of experiment [1] is T1, G protein-coupled receptor kinase 3 (Homo sapiens) (UniProt P35626).
T1 sequence (whole entry): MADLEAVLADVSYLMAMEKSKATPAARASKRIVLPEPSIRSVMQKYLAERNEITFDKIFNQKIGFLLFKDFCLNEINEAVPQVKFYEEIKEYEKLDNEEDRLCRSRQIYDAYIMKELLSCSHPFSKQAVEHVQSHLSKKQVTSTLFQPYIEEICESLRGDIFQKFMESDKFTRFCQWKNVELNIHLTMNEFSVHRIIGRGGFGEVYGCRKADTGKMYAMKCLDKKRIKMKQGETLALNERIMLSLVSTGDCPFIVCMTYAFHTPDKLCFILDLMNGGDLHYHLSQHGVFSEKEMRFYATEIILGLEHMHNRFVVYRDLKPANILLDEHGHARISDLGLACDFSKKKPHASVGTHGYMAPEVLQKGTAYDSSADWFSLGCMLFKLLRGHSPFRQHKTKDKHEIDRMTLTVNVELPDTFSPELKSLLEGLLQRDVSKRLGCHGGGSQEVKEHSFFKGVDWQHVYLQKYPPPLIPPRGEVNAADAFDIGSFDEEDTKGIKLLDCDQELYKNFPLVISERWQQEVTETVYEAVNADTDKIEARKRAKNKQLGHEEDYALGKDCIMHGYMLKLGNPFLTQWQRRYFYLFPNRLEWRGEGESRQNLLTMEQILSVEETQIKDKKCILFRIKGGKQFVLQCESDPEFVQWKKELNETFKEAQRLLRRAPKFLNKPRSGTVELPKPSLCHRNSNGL
The experiment can be described thus: Inhibition of human recombinant BARK2 at 15 nM related to control ULK1.

Experiment [2] addresses Focal adhesion kinase 1 (Homo sapiens) (UniProt Q05397). Briefly: Inhibition of human recombinant FAK at 15 nM related to control ULK1.
The target in experiment [3] is T2, Tyrosine-protein kinase JAK3 (Homo sapiens) (UniProt P52333).
T2 sequence (whole entry): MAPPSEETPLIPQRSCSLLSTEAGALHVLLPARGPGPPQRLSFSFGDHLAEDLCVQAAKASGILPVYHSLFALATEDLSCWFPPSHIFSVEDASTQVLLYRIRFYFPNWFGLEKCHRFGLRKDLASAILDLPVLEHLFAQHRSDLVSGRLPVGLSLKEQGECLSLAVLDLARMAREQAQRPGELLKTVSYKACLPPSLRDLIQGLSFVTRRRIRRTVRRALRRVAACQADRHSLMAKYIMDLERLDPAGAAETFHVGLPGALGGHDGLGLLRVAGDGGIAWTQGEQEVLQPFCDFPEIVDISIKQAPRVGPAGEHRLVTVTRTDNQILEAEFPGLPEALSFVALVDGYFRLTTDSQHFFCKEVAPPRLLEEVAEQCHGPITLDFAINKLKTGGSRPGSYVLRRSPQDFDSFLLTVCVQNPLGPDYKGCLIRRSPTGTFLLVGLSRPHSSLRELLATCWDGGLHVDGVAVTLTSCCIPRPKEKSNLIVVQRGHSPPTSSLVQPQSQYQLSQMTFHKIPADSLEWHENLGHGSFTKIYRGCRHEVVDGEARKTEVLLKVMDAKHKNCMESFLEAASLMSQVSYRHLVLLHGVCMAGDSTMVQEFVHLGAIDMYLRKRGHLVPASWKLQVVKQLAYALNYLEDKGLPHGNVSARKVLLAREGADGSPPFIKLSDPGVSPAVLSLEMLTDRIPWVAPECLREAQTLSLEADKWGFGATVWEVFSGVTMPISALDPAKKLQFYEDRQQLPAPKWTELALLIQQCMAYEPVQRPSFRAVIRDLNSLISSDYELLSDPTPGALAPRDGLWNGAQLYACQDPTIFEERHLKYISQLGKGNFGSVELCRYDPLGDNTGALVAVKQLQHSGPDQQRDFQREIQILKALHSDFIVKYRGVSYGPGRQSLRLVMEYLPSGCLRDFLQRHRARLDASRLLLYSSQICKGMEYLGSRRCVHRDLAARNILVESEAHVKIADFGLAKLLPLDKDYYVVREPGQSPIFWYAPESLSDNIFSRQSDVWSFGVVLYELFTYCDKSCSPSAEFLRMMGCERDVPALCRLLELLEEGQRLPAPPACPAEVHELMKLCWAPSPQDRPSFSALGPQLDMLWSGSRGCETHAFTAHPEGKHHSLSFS
The experiment can be described thus: Inhibition of human recombinant JAK3 at 15 nM in presence of ATP by radiometric assay relative to control.

Experiment [4] addresses Protein kinase C eta type (Homo sapiens) (UniProt P24723). Briefly: Inhibition of human recombinant PKCH at 40 nM in presence of ATP by radiometric assay relative to control.
For experiment [5], the target named is Mitogen-activated protein kinase kinase kinase 10 (Homo sapiens) (UniProt Q02779). The experiment can be described thus: Inhibition of human recombinant MLK2 at 40 nM related to control ULK1.
In experiment [6] the target is T3, Discoidin domain-containing receptor 2 (Homo sapiens) (UniProt Q16832).
T3 sequence (whole entry): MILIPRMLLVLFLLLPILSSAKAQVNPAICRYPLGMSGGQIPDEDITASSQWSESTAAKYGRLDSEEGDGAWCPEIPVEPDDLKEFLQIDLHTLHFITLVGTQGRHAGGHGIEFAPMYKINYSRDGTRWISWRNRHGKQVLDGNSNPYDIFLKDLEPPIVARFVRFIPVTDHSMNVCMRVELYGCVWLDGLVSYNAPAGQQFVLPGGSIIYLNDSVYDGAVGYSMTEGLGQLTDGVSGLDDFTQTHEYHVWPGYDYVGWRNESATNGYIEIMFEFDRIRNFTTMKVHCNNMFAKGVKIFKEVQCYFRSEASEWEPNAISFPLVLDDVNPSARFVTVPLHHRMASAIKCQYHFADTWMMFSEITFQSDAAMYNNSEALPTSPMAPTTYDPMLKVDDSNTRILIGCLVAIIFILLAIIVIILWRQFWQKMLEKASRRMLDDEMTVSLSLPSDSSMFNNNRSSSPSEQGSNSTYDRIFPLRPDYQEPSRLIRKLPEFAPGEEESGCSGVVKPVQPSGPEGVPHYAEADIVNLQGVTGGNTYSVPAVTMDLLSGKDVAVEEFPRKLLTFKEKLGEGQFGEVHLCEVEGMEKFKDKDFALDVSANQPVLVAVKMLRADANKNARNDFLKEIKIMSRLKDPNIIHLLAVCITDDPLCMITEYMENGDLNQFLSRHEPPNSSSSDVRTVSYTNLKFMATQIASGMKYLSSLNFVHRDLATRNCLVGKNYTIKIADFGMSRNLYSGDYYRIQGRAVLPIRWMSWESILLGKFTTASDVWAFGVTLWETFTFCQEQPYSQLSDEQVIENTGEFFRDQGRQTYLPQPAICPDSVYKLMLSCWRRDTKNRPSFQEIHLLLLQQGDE
The experiment can be described thus: Inhibition of human recombinant DDR2 at 40 nM in presence of ATP by radiometric assay relative to control.

Experiment [7] deals with High affinity nerve growth factor receptor (Homo sapiens) (UniProt P04629). Briefly: Inhibition of human recombinant TRKA at 40 nM in presence of ATP by radiometric assay relative to control.

The term inhibition denotes the share of the control response that was lost under treatment.

Chain of Mitogen-activated protein kinase kinase kinase 10 (Homo sapiens) (Q02779 whole entry, looked up, the tested form may be a part): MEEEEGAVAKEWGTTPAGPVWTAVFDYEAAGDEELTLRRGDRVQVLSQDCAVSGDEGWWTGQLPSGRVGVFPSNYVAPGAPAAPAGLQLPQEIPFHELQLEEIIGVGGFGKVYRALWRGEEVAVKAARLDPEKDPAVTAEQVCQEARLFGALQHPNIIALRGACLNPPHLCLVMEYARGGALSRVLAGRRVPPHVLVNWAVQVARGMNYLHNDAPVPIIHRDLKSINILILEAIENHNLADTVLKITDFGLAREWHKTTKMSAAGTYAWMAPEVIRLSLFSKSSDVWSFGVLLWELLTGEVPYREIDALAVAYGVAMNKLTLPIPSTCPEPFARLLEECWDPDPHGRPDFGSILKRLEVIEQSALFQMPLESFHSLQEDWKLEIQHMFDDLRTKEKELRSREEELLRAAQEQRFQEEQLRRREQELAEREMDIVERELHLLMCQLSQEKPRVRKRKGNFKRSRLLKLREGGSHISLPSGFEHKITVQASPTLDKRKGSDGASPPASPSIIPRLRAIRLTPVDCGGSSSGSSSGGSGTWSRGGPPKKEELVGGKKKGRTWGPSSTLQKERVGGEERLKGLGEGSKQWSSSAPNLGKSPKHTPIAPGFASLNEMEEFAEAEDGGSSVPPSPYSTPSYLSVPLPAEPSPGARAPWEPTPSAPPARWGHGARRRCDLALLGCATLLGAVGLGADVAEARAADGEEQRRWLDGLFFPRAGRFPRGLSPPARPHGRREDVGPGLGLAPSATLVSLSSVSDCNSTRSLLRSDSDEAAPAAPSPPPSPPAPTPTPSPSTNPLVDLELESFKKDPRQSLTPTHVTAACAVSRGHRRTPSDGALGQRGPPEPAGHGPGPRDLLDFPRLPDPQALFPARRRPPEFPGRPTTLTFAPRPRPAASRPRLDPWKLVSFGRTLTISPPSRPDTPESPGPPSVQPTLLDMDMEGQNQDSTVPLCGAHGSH
Chain of Focal adhesion kinase 1 (Homo sapiens) (Q05397 2-1052 limits assumed): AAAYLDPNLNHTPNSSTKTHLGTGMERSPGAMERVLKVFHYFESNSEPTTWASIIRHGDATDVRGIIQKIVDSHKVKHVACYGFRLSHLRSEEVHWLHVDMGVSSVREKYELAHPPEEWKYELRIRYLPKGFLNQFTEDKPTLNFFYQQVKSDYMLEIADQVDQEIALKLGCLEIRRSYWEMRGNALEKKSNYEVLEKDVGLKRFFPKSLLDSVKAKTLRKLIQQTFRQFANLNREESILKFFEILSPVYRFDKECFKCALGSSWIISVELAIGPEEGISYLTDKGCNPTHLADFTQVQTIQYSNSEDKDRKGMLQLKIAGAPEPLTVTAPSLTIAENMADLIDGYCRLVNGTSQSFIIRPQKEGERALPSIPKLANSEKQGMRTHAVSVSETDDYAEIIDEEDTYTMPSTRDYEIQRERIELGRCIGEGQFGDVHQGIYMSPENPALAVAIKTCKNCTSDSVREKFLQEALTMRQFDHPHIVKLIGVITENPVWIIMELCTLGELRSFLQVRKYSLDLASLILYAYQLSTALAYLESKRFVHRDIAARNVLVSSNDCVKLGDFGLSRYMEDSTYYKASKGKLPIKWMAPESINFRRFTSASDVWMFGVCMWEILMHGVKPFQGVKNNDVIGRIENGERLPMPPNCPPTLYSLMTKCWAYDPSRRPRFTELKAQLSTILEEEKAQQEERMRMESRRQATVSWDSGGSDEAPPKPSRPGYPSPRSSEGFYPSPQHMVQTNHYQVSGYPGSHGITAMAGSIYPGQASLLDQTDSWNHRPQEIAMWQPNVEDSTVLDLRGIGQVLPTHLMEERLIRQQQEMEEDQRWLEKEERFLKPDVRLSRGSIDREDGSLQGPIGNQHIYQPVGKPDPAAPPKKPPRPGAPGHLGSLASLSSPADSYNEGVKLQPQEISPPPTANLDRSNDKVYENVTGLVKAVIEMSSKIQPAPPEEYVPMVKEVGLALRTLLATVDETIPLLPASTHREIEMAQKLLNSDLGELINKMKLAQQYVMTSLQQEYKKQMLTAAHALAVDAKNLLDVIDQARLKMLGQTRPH
Chain of Protein kinase C eta type (Homo sapiens) (P24723 whole entry): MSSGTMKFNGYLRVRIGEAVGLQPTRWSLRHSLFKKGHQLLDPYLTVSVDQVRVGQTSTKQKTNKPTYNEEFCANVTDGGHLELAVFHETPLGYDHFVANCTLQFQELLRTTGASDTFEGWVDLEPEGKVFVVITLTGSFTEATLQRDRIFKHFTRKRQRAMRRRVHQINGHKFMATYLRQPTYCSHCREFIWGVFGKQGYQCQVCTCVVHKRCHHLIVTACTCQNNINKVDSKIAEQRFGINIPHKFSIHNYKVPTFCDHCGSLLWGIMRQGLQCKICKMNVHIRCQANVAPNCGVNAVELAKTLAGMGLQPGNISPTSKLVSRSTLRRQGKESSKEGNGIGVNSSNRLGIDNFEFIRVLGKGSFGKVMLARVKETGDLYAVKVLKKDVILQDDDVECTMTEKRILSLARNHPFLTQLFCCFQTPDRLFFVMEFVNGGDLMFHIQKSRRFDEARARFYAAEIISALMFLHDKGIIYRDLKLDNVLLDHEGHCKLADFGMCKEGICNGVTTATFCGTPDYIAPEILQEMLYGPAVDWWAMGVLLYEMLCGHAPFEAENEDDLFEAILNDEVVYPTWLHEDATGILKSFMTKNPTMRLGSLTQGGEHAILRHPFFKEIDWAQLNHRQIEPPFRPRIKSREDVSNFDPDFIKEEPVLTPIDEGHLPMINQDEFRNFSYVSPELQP
Chain of High affinity nerve growth factor receptor (Homo sapiens) (P04629 33-796 limits assumed): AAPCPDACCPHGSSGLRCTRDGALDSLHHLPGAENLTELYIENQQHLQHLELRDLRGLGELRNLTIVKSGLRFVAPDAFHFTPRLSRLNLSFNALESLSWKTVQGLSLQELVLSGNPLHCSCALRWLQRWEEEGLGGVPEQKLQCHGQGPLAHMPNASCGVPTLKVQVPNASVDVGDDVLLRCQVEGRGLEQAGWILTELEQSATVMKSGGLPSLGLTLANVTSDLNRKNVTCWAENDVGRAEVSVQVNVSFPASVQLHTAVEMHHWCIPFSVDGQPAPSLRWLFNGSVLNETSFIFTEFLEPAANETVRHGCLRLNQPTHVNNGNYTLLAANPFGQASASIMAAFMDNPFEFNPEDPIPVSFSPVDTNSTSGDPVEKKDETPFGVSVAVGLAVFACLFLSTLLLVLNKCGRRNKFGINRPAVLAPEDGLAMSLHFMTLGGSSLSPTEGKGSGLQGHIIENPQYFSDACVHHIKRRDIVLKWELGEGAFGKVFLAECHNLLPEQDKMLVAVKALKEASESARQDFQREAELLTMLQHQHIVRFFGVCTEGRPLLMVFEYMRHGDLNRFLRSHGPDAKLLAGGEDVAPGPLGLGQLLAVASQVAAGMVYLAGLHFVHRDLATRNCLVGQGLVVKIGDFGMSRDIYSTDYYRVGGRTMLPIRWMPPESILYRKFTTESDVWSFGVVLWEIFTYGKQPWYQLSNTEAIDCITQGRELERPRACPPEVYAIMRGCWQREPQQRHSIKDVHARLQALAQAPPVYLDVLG

As to `CC(C)[C@H](NC(=O)c1cc(-c2cnn3cc(-c4ccc(OCCN5CCCCC5)cc4)cnc23)cs1)C(F)(F)F`, the fold change (FC) in experiment [1] and in experiment [2] was 0 throughout. The inhibition in experiment [3] was 0%.

On to `O=C(N[C@@H](C1CC1)C(F)(F)F)c1cc(-c2cnn3cc(-c4ccc(F)cc4)cnc23)cs1`, for which the inhibition in experiment [4], in experiment [6] and in experiment [7] was 0% in each case. Moreover, in experiment [5], the fold change (FC) is 0.
